From patent US7332608B2, “Anthranilamides and methods of their use” (SANOFI-AVENTIS Deutschland GmbH, priority 2001, dated 2008)
pIC50: −log10 of the molar value.

biological target: T1, Human Kv1.5 channels (Homo sapiens, UniProt P22460); assay: Kv1.5 currents in Xenopus oocytes, two-microelectrode voltage clamp; type: cell-based; conditions: human Kv1.5 expressed in Xenopus laevis oocytes; voltage jumps 500 ms to 0 mV and 40 mV; room temperature; Hill equation
T1 construct: expressed in transfected cells; host or cells: Xenopus laevis oocytes injected with in vitro synthesized Kv1.5-encoding RNA
Protocol: Human Kv1.5 channels were expressed in Xenopus oocytes. For this purpose, firstly ooytes were isolated from Xenopus laevis and were defolliculated. Kv1.5-encoding RNA which had been synthesized in vitro was then injected into these oocytes. After 1-7 days of Kv1.5 protein expression, the Kv1.5 currents were measured on the oocytes by the two-microelectrode voltage clamp technique. The Kv1.5 channels were for this purpose usually activated with voltage jumps lasting 500 ms to 0 mV and 40 mV. A solution of the following composition flowed through the bath: NaCl 96 mM, KCl 2 mM, CaCl2 1.8 mM, MgCl2 1 mM, HEPES 5 mM (titrated to pH 7.4 with NaOH). These experiments were carried out at room temperature. The following were employed for data acquisition and analysis: geneclamp amplifier (Axon Instruments, Foster City, USA) and MacLab D/A converter and software (ADInstruments, Castle Hill, Australia). The compounds of the invention were tested by adding them in various concentrations to the bath solution. The effects of the compounds were calculated as percentage inhibition of the Kv1.5 control current which was obtained when no compound was added to the solution. The data were then extrapolated using the Hill equation in order to determine the inhibitory concentrations IC50 for the respective compounds.

T1 sequence (P22460 whole entry): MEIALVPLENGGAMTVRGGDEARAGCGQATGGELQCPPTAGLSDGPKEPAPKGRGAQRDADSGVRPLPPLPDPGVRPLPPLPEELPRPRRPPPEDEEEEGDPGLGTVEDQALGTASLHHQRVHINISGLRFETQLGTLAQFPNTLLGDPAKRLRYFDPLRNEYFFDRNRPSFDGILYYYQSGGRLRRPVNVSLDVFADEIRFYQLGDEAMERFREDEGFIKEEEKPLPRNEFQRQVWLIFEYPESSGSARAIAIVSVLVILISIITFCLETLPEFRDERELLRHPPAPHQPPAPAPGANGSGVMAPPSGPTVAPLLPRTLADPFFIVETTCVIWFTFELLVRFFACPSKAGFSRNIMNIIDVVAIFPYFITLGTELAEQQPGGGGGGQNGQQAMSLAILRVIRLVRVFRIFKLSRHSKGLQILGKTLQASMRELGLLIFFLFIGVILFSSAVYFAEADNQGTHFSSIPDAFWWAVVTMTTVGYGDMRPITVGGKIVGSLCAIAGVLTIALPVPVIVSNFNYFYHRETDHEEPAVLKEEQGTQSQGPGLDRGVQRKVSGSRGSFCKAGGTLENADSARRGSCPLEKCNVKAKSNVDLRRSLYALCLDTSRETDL

pIC50	SMILES
5.26	C[C@H](NC(=O)c1cc(Cl)ccc1NS(=O)(=O)c1ccccc1)c1ccccc1 [Example 1, (S)-2-Phenylsulfonylamino-5-chloro-N-(1-phenylethyl)benzamide]
5.09	C[C@@H](NC(=O)c1cc(Cl)ccc1NS(=O)(=O)c1ccccc1)c1ccccc1 [Example 2, (R)-2-Phenylsulfonylamino-5-chloro-N-(1-phenylethyl)benzamide]
5.55	CC[C@H](NC(=O)c1cc(Cl)ccc1NS(=O)(=O)c1ccccc1)c1ccccc1 [Example 3, (S)-2-Phenylsulfonylamino-5-chloro-N-(1-phenylpropyl)benzamide]
5.39	CC[C@@H](NC(=O)c1cc(Cl)ccc1NS(=O)(=O)c1ccccc1)c1ccccc1 [Example 4, (R)-2-Phenylsulfonylamino-5-chloro-N-(1-phenylpropyl)benzamide]
5.35	COc1ccc([C@H](C)NC(=O)c2cc(Cl)ccc2NS(=O)(=O)c2ccccc2)cc1 [Example 5, (S)-2-Phenylsulfonylamino-5-chloro-N-[1-(4-methoxyphenyl)ethyl]-benzamide]
5.09	COc1ccc([C@@H](C)NC(=O)c2cc(Cl)ccc2NS(=O)(=O)c2ccccc2)cc1 [Example 6]
5.29	O=C(NC(c1ccccc1)c1ccccn1)c1cc(Cl)ccc1NS(=O)(=O)c1ccccc1 (stereo not drawn) [Example 7, 2-Phenylsulfonylamino-5-chloro-N-(phenylpyridin-2-ylmethyl)benzamide]
6.05	Cc1ccc(S(=O)(=O)Nc2ccccc2C(=O)N(Cc2ccccc2)Cc2cccnc2)cc1 [Example 8, N-Benzyl-N-pyridin-3-ylmethyl-2-(toluene-4-sulfonylamino)benzamide]
5.31	COc1ccc(S(=O)(=O)Nc2cc(C)ccc2C(=O)NC(C)c2ccccc2)cc1 (stereo not drawn) [Example 9]
5.60	CCC(NC(=O)c1cccc(C)c1NS(=O)(=O)c1ccc(Cl)cc1)c1ccccc1 (stereo not drawn) [Example 10]
5.10	CCN(C(=O)c1ccccc1NS(=O)(=O)c1ccc(Cl)cc1)C1CCCCC1 [Example 11]
5.27	CCN(C(=O)c1ccccc1NS(=O)(=O)c1ccc(C)cc1)C1CCCCC1 [Example 12]
5.07	Cc1ccc(S(=O)(=O)Nc2ccc(F)cc2C(=O)NC2CCCCC2)cc1 [Example 14]
5.11	CCN(C(=O)c1cc(F)ccc1NS(=O)(=O)c1ccc(C)cc1)C1CCCCC1 [Example 15]
5.19	CCN(C(=O)c1cc(Cl)ccc1NS(=O)(=O)c1ccc(C)cc1)C1CCCCC1 [Example 16]
5.12	O=C(NC1CCCCC1)c1cc(Cl)ccc1NS(=O)(=O)c1ccccc1 [Example 17]
5.17	CCN(C(=O)c1cc(Cl)ccc1NS(=O)(=O)c1ccccc1)C1CCCCC1 [Example 18]
5.38	COc1ccc(S(=O)(=O)Nc2c(C)cccc2C(=O)NC(C)c2ccccc2)cc1 (stereo not drawn) [Example 19]
5.11	CCCCS(=O)(=O)Nc1cc(C)ccc1C(=O)NC1CCCCC1 [Example 20]
5.28	Cc1ccc(NS(=O)(=O)c2ccccc2)c(C(=O)NC2CCCCC2)c1 [Example 21]
5.32	Cc1cccc(NS(=O)(=O)c2ccc(Cl)cc2)c1C(=O)NC1CCCCC1 [Example 22]
5.30	Cc1cccc(NS(=O)(=O)c2ccc(Cl)cc2)c1C(=O)NC(C)c1ccccc1 (stereo not drawn) [Example 23]
5.52	CCC(NC(=O)c1c(C)cccc1NS(=O)(=O)c1ccc(Cl)cc1)c1ccccc1 (stereo not drawn) [Example 24]

pIC50	SMILES
5.47	COc1ccc(S(=O)(=O)Nc2cc(C)ccc2C(=O)NC2CCCCC2)cc1 [Example 25]
6.22	CCC(NC(=O)c1cc(OC)ccc1NS(=O)(=O)c1ccc(C)cc1)c1ccccc1 (stereo not drawn) [Example 26]
5.25	COc1ccc(NS(=O)(=O)c2ccc(C)cc2OC)c(C(=O)NC2CCC(C)CC2)c1 (stereo not drawn) [Example 27]
5.49	Cc1ccc(S(=O)(=O)Nc2ccccc2C(=O)NC(C)c2ccccc2)cc1 (stereo not drawn) [Example 28]
5.29	COc1cc(C)ccc1S(=O)(=O)Nc1ccc(Cl)cc1C(=O)NCCOCc1ccccc1 [Example 29]
6.15	Cc1ccc(S(=O)(=O)Nc2ccccc2C(=O)N(Cc2ccccc2)Cc2nccn2C)cc1 [Example 30]
5.59	Cc1ccc(S(=O)(=O)Nc2ccccc2C(=O)N(Cc2ccccc2)CC2CCCCC2)cc1 [Example 31]
5.07	Cc1ccc(S(=O)(=O)Nc2ccccc2C(=O)N(CCCn2ccnc2)Cc2ccccc2)cc1 [Example 32]
5.19	Cc1ccc(S(=O)(=O)Nc2ccccc2C(=O)N(Cc2ccccc2)Cc2ccncc2)cc1 [Example 33]
5.51	Cc1ccc(S(=O)(=O)Nc2ccccc2C(=O)N(Cc2cccnc2)CC2CC2)cc1 [Example 34]
5.70	Cc1ccc(S(=O)(=O)Nc2ccccc2C(=O)N(Cc2ccccc2)Cc2nc3ccccc3[nH]2)cc1 [Example 35]
5.70	Cc1ccc(S(=O)(=O)Nc2ccccc2C(=O)N(Cc2ccccc2)Cc2ccc(C)o2)cc1 [Example 36]
5.72	Cc1ccc(S(=O)(=O)Nc2ccccc2C(=O)N(Cc2ccccc2)CC2CC2)cc1 [Example 37]
5.80	Cc1ccc(S(=O)(=O)Nc2ccccc2C(=O)N(Cc2ccccc2)Cc2ccco2)cc1 [Example 38]
< 5.00	Cc1ccc(S(=O)(=O)Nc2ccccc2C(=O)N(CCCn2ccnc2C)Cc2ccccc2)cc1 [Example 39]
6.10	Cc1ccc(S(=O)(=O)Nc2cc(C)ccc2C(=O)N(Cc2ccccc2)Cc2nccn2C)cc1 [Example 40]
5.72	COc1ccc(NS(=O)(=O)c2ccc(C)cc2)c(C(=O)N(Cc2ccccc2)Cc2nccn2C)c1 [Example 41]
5.30	Cc1ccc(S(=O)(=O)Nc2ccccc2C(=O)N(CCc2ccccn2)CC2CC2)cc1 [Example 42]
5.27	COc1ccc(NS(=O)(=O)c2cccc(C(F)(F)F)c2)c(C(=O)N(Cc2ccccc2)Cc2nccn2C)c1 [Example 43]
5.54	O=C(c1ccccc1NS(=O)(=O)c1ccc(Cl)cc1)N(Cc1ccccc1)Cc1cccnc1 [Example 44]
5.60	Cc1ccc(S(=O)(=O)Nc2ccc(Cl)cc2C(=O)N(Cc2ccccc2)Cc2cccnc2)cc1 [Example 45]
5.92	Cc1ccc(S(=O)(=O)Nc2ccc(F)cc2C(=O)N(Cc2ccccc2)Cc2cccnc2)cc1 [Example 46]
5.33	COc1ccc(S(=O)(=O)Nc2cccc(C)c2C(=O)N(Cc2ccccc2)Cc2cccnc2)cc1 [Example 47]

pIC50	SMILES
< 5.00	Cc1ccc(S(=O)(=O)Nc2ccccc2C(=O)N(Cc2ccncc2)CC2CC2)cc1 [Example 48]
5.20	Cc1ccc(S(=O)(=O)Nc2ccccc2C(=O)N(CCc2cccnc2)CC2CC2)cc1 [Example 49]
6.15	COc1ccc(S(=O)(=O)Nc2ccccc2C(=O)N(Cc2ccccc2)Cc2cccnc2)cc1 [Example 50]
5.44	CCC(Cc1ccccc1)NC(=O)c1cc(OC)ccc1NS(=O)(=O)c1ccc(C)cc1 (stereo not drawn) [Example 51]
5.52	CCC(Cc1ccccc1)NC(=O)c1ccccc1NS(=O)(=O)c1ccccc1 (stereo not drawn) [Example 52]
5.60	CCC(NC(=O)c1cc(OC)ccc1NS(=O)(=O)c1ccc(C)cc1)c1ccncc1 (stereo not drawn) [Example 53]
5.40	CCCCS(=O)(=O)Nc1ccc(C)cc1C(=O)NC1CCCCC1 [Example 54, 2-(Butylsulfonylamino)-N-cyclohexyl-5-methylbenzamide]
5.34	CCCCS(=O)(=O)Nc1ccc(C)cc1C(=O)NC(C)c1ccccc1 (stereo not drawn) [Example 55]
5.30	CCCCS(=O)(=O)N(CC)c1ccccc1C(=O)N[C@@H](CC)c1ccccc1 [Example 57]
< 5.00	CCCCS(=O)(=O)Nc1ccccc1C(=O)N[C@@H](CC)c1ccccc1 [Example 58]
5.77	CC[C@H](NC(=O)c1ccccc1NS(=O)(=O)c1cccc(C)c1)c1ccccc1 [Example 59]
6.15	CC[C@H](NC(=O)c1ccccc1NS(=O)(=O)c1ccc(C)cc1)c1ccccc1 [Example 60]
5.25	CC[C@H](NC(=O)c1ccccc1NS(=O)(=O)c1ccc2ccccc2c1)c1ccccc1 [Example 61]
5.46	CC[C@H](NC(=O)c1ccccc1NS(=O)(=O)c1cccc2ccccc12)c1ccccc1 [Example 62]
5.77	CC[C@H](NC(=O)c1ccccc1NS(=O)(=O)c1cccc(OC)c1)c1ccccc1 [Example 63]
6.22	CC[C@H](NC(=O)c1ccccc1NS(=O)(=O)c1ccc(OC)cc1)c1ccccc1 [Example 64]
5.32	CC[C@H](NC(=O)c1ccccc1NS(=O)(=O)c1cccc2c(N(C)C)cccc12)c1ccccc1 [Example 65]
5.40	CC[C@H](NC(=O)c1ccccc1NS(=O)(=O)c1ccc(C(F)(F)F)cc1)c1ccccc1 [Example 66]
5.24	CC[C@H](NC(=O)c1ccccc1NS(=O)(=O)c1ccc(OC(F)(F)F)cc1)c1ccccc1 [Example 67]
5.54	CC[C@H](NC(=O)c1ccccc1NS(=O)(=O)c1ccc(Cl)cc1)c1ccccc1 [Example 68]
5.89	CC[C@H](NC(=O)c1ccccc1NS(=O)(=O)c1ccccc1)c1ccccc1 [Example 69]
5.42	COc1cccc(S(=O)(=O)Nc2ccccc2C(=O)N(Cc2ccccc2)Cc2cccnc2)c1 [Example 70]
5.16	CCCCS(=O)(=O)Nc1ccccc1C(=O)N(Cc1ccccc1)Cc1cccnc1 [Example 71]
